Test results taken from paper PMC6675120, “Potent and selective inhibitors for M32 metallocarboxypeptidases identified from high-throughput screening of anti-kinetoplastid chemical boxes” (PLoS Neglected Tropical Diseases, 2019).

What was measured:
Purified rabbit lung ACE = biological target: T1, Purified rabbit lung ACE (Oryctolagus cuniculus, UniProt P12822); assay: ACE assay with Abz-FRK(Dnp)P-OH, dose-response; format: biochemical; settings: dose-response 7,5 pM to 62,5 μM
T1 construct: Purified rabbit lung ACE (EC 3.4.15.1) was purchased from Sigma-Aldrich; purchased Sigma-Aldrich; host or cells: rabbit lung tissue
T1 sequence (P12822 34-1310): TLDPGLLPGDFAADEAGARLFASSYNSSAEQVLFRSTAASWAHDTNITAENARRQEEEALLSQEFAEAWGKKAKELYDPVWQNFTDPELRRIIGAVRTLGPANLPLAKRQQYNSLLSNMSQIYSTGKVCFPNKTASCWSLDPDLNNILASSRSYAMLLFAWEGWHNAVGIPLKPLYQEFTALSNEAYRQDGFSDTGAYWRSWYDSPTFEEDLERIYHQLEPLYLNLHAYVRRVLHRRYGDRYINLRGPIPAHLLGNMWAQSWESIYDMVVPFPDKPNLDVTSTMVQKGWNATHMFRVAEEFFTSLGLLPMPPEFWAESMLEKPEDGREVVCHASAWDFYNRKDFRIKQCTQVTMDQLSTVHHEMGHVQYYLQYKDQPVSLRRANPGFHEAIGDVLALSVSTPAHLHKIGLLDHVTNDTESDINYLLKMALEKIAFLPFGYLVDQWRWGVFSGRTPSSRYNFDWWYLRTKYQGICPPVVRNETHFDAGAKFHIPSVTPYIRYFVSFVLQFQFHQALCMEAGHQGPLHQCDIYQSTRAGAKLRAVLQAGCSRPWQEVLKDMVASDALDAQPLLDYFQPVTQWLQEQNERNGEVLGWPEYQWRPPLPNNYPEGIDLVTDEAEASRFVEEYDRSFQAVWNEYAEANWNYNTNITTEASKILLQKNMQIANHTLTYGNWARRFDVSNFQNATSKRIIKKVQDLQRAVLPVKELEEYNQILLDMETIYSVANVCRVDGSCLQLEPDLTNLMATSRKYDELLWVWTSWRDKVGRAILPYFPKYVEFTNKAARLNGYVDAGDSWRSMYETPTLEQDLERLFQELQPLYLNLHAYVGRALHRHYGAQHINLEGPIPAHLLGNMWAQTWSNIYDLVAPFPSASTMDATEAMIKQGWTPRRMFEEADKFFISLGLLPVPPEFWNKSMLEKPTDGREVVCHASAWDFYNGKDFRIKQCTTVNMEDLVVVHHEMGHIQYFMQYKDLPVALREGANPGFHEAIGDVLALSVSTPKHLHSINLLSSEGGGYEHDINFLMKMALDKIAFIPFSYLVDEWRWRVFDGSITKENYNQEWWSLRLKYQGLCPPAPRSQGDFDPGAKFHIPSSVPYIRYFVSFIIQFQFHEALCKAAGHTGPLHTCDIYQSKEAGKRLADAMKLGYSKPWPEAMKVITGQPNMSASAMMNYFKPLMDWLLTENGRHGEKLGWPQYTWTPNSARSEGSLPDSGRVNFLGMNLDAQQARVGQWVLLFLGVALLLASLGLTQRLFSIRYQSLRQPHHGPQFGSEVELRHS
Procedure: Because M32 MCPs show a strong topological similarity with ACE [22], we chose this enzyme to estimate the IC50 value for each molecule.
(A) Purified rabbit lung ACE was assayed at 37°C in 0,1 M Tris-HCl pH 7,0 buffer containing 50 mM NaCl, 10 mM ZnCl2 and 0,01% Triton X-100. […] NI, no inhibitor added. […] In all cases, solid lines represent the best fit of four-parameter Hill equation to experimental data (closed circles).
Purified rabbit lung ACE (EC 3.4.15.1) was purchased from Sigma-Aldrich. Enzyme activity was assayed fluorimetrically with Abz-FRK(Dnp)P-OH (ex/em = 320/420 nm) as substrate in buffer 0,1 M Tris-HCl, 50 mM NaCl, 10 mM ZnCl2, pH 7.0 containing 0,01% Triton X-100 as indicated in [23].

cruzipain = tested on: cruzipain; design: method as in PMID 28935948; settings: at 25 μM; cited from earlier work
T. cruzi = tested on: T. cruzi; design: method as in https://pubchem.ncbi.nlm.nih.gov/compound/91800813; settings: ref https://pubchem.ncbi.nlm.nih.gov/compound/91800813; cited from earlier work
T. brucei = tested on: T. brucei; design: method as in https://pubchem.ncbi.nlm.nih.gov/compound/91800813; settings: ref https://pubchem.ncbi.nlm.nih.gov/compound/91800813; cited from earlier work
L. donovani = tested on: L. donovani; design: method as in https://pubchem.ncbi.nlm.nih.gov/compound/91800813; settings: ref https://pubchem.ncbi.nlm.nih.gov/compound/91800813; cited from earlier work

For `N#Cc1ccc(S(=O)(=O)N2CCN(Cc3cccc(-c4ccncc4)c3)CC2)cc1` [TCMDC-143620], the ACE inhibition (Purified rabbit lung ACE) is given as “inactive”, the cruzipain inhibition (cruzipain) is given as ~ 7,5% and the “activity against T. cruzi in culture” value (T. cruzi) is given as “potent activity”. For the same compound, the “activity on T. brucei” value (T. brucei) was “moderate but measurable activity” and the “activity on L. donovani” value (L. donovani) was “moderate but measurable activity”.
